ChEMBL document CHEMBL5107956, “Natural products from mangrove sediments-derived microbes: Structural diversity, bioactivities, biosynthesis, and total synthesis” (Eur J Med Chem, 2022)
Values after ≈ are worked out from the molar mass of the structure shown.

Columns and labels:
[1] = system: HL-60; test: Antiproliferative activity against human HL-60 cells assessed as cell growth inhibition measured after 72 hrs by CCK-8 assay; format: functional, cell-based; settings: HL-60, 72 h
[2] = system: HeLa; test: Cytotoxicity against human HeLa cells assessed as cell growth inhibition; format: functional, cell-based
[3] = system: MCF7; test: Cytotoxicity against human MCF7 cells assessed as cell growth inhibition; format: functional, cell-based
[4] = system: HCT-116; test: Cytotoxicity against human HCT-116 cells assessed as cell growth inhibition by MTT assay; format: functional, cell-based
[5] = system: Staphylococcus aureus; test: Antibacterial activity against methicillin-resistant Staphylococcus aureus assessed as bacterial cell growth inhibition by agar dilution method; format: functional
[6] = system: Candida albicans; test: Antifungal activity against Candida albicans ATCC 10231 assessed as fungal growth inhibition by agar dilution method; format: functional
[7] = system: Staphylococcus aureus; test: Antibacterial activity against Staphylococcus aureus S014 assessed as bacterial cell growth inhibition by agar dilution method; format: functional
[8] = system: Escherichia coli; test: Antibacterial activity against Escherichia coli S002 assessed as bacterial cell growth inhibition by agar dilution method; format: functional
[9] = system: Bacillus subtilis; test: Antibacterial activity against Bacillus subtilis S028 assessed as bacterial cell growth inhibition by agar dilution method; format: functional
[10] = system: Influenza A virus; test: Antiviral activity against Influenza A virus H1N1; format: functional, organism-based

Question: Which IC50 [1] does the source give for C/C=C/[C@H](O)[C@H](C)/C=C(C)/C=C/C/C(C)=C/Cc1[nH]c(OC)cc(=O)c1C here?
Answer: < 100 nM

Question: Which results are given for CC[C@@H]1[C@@H](C)O[C@@](O)([C@@H](C)[C@H](O)[C@H](C)[C@H]2OC(=O)/C=C/C=C/[C@H](C)[C@@H]([C@@H](C)[C@@H](O)[C@H](C)[C@@]3(O)C[C@@H](O[C@H]4C[C@H](O)[C@H](O)[C@H](C)O4)[C@H](CC)[C@@H](C)O3)OC(=O)/C=C/C=C/[C@@H]2C)C[C@H]1O[C@H]1C[C@H](O)[C@H](O)[C@H](C)O1?
Answer: IC50 [2]: 190 nM; IC50 [3]: 190 nM

Question: For CC[C@@H]1[C@@H](C)O[C@@](O)([C@@H](C)[C@H](O)[C@H](C)[C@H]2OC(=O)/C=C/C=C/[C@H](C)[C@@H]([C@@H](C)[C@@H](O)[C@@H](C)[C@@]3(O)C[C@@H](O[C@H]4C[C@H](O)[C@H](O)[C@H](C)O4)[C@H](CC)[C@@H](C)O3)OC(=O)/C=C/C=C/[C@@H]2C)C[C@H]1OC, which IC50 [2] is on record?
Answer: 190 nM

Question: And the IC50 [3]?
Answer: 190 nM

Question: Which IC50 [4] does the source give for CN[C@@H]1O[C@H]2C[C@@](C)([C@@H]1OC)n1c3ccccc3c3c4c(c5c6ccccc6n2c5c31)C(=O)NC4 here?
Answer: 40 nM

Question: With CC[C@@H]1[C@@H](C)O[C@@](OC)([C@@H](C)[C@H](O)[C@H](C)[C@H]2OC(=O)/C=C/C=C/[C@H](C)[C@@H]([C@@H](C)[C@@H](O)[C@H](C)[C@@]3(O)C[C@@H](O[C@H]4C[C@H](O)[C@H](O)[C@H](C)O4)[C@H](CC)[C@@H](C)O3)OC(=O)/C=C/C=C/[C@@H]2C)C[C@H]1O[C@H]1C[C@H](O)[C@H](O)[C@H](C)O1 as the compound, how does the IC50 [2] read?
Answer: 190 nM

Question: And the IC50 [3]?
Answer: 190 nM

Question: C/C1=C\C=C\C(C)C(O)CC(O)C(C)C(O)CCC(C)C(O)CC2(O)OC(CC(OC(=O)CC(=O)O)CC(O)CC(O)CC(O)/C(C)=C/C=C/C(C)C(C(C)CCC/C=C/CCCNC(=N)N)OC1=O)CC(O)C2O (stereo unspecified) was tested. Which MBC [5] did it give?
Answer: 8 µg/mL (≈ 7.49 µM)

Question: What about the MIC [5] of the same compound?
Answer: 4 µg/mL (≈ 3.74 µM)

Question: And the IC50 [4]?
Answer: 1.81 µg/mL

Question: What about the MIC [6] of the same compound?
Answer: 1.65 µg/mL (≈ 1.54 µM)

Question: Which IC50 [1] does the source give for C/C=C/[C@H](OC)[C@H](C)/C=C(C)/C=C/C/C(C)=C/Cc1nc(OC)c(OC)c(O)c1C here?
Answer: < 100 nM

Question: How did the MIC [6] turn out when C/N=C(\NC)NCCC/C=C/CCC[C@H](C)[C@@H]1OC(=O)/C(C)=C/C=C/[C@H](C)[C@@H](O)C[C@H](O)[C@@H](C)[C@H](O)CC[C@H](C)[C@@H](O)C[C@@]2(O)O[C@@H](C[C@@H](O)C[C@H](OC(=O)CC(=O)O)C[C@@H](O)C[C@H](O)/C(C)=C/C=C/[C@H]1C)C[C@@H](O)[C@@H]2O was run?
Answer: 1.65 µg/mL (≈ 1.5 µM)

Question: And the MIC [7]?
Answer: 0.39 µg/mL (≈ 0.356 µM)

Question: What about the MIC [8] of the same compound?
Answer: 3.13 µg/mL (≈ 2.85 µM)

Question: What about the MIC [9] of the same compound?
Answer: 0.2 µg/mL (≈ 0.182 µM)

Question: How did the MBC [5] turn out when C/N=C(\N)NCCC/C=C/CCCC(C)C1OC(=O)/C(C)=C/C=C/C(C)C(O)CC(O)C(C)C(O)CCC(C)C(O)CC2(O)OC(CC(OC(=O)CC(=O)O)CC(O)CC(O)CC(O)/C(C)=C/C=C/C1C)CC(O)C2O (stereo unspecified) was run?
Answer: 8 µg/mL (≈ 7.39 µM)

Question: What about the MIC [5] of the same compound?
Answer: 4 µg/mL (≈ 3.7 µM)

Question: What about the IC50 [4] of the same compound?
Answer: 1.81 µg/mL

Question: And the MIC [6]?
Answer: 1.65 µg/mL (≈ 1.52 µM)

Question: For C/N=C(\NC)NCCC/C=C/CCC[C@H](C)[C@@H]1OC(=O)/C(C)=C/C=C/[C@H](C)[C@@H](O)C[C@H](O)[C@@H](C)[C@H](O)CC[C@H](C)[C@@H](O)C[C@@]2(O)O[C@@H](C[C@@H](OC(=O)C(N)C(C)C)C[C@H](O)C[C@@H](O)C[C@H](O)/C(C)=C/C=C/[C@H]1C)C[C@@H](O)[C@@H]2O (stereo partly specified), which MIC [6] is on record?
Answer: 1.65 µg/mL (≈ 1.49 µM)

Question: And the MIC [7]?
Answer: 0.39 µg/mL (≈ 0.352 µM)

Question: What about the MIC [8] of the same compound?
Answer: 3.13 µg/mL (≈ 2.82 µM)

Question: And the MIC [9]?
Answer: 0.2 µg/mL (≈ 0.18 µM)

Question: With CC[C@@H]1[C@@H](C)O[C@@](O)([C@@H](C)[C@H](O)[C@H](C)[C@H]2OC(=O)/C=C/C=C/[C@H](C)[C@@H]([C@@H](C)[C@@H](O)[C@H](C)[C@@]3(O)C[C@@H](O[C@H]4C[C@H](O)[C@H](O)[C@H](C)O4)[C@H](C)[C@@H](C)O3)OC(=O)/C=C/C=C/[C@@H]2C)C[C@H]1O[C@H]1C[C@H](O)[C@H](O)[C@H](C)O1 as the compound, how does the IC50 [2] read?
Answer: 190 nM

Question: What about the IC50 [3] of the same compound?
Answer: 190 nM

Question: COc1nc(C/C=C(\C)C/C=C/C(C)=C/[C@@H](C)/C=C/[C@@H](C)OC)c(C)c(O)c1OC was tested. Which IC50 [1] did it give?
Answer: < 100 nM

Question: O=C1NC(=O)[C@H](Cc2c[nH]c3ccccc23)n2c1nc1ccccc1c2=O was tested. Which IC50 [10] did it give?
Answer: 82000 nM

Question: What does the source list for C/N=C(/NC)NCCC/C=C/CCC[C@H](C)[C@@H]1OC(=O)/C(C)=C/C=C/[C@H](C)[C@@H](O)C[C@H](O)[C@@H](C)[C@H](O)CC[C@H](C)[C@@H](O)C[C@@]2(O)O[C@@H](C[C@@H](OC(=O)CCCCCCCCC(C)C)C[C@H](O)C[C@@H](O)C[C@H](O)/C(C)=C/C=C/[C@H]1C)C[C@@H](O)[C@@H]2O?
Answer: MIC [6]: 1.65 µg/mL (≈ 1.38 µM); MIC [7]: 0.39 µg/mL (≈ 0.327 µM); MIC [8]: 3.13 µg/mL (≈ 2.62 µM); MIC [9]: 0.2 µg/mL (≈ 0.168 µM)

Question: With CC(=O)C[C@H](c1nc2ccccc2c(=O)n1[C@@H]1C[C@]2(OC1=O)c1ccccc1N1C(=O)C(C)(C)N[C@H]12)C(C)C as the compound, how does the IC50 [10] read?
Answer: 82000 nM

Question: With COC(=O)Nc1ccc(C)c(NC(=O)N(C)[C@@H]2O[C@H]3C[C@@](C)([C@@H]2OC)n2c4ccccc4c4c5c(c6c7ccccc7n3c6c42)C(=O)NC5)c1 as the compound, how does the IC50 [4] read?
Answer: 370 nM

Question: For CS[C@H]1NC(=O)[C@@](Cc2ccc(CCC=C(C)C)cc2)(SC)N(C)C1=O, which IC50 [2] is on record?
Answer: 4200 nM
